Data published in patent publication US20140363530A1, “COMPOSITION COMPRISING THE EXTRACT OF PINE TREE LEAF OR THE COMPOUNDS ISOLATED THEREFROM FOR THE PREVENTION AND TREATMENT OF CANCER DISEASE BY INHIBITING HPV VIRUS AND THE USES THEREBY” (priority 2012, published 2014).
In brackets after ≈: the same amount, converted by molar mass. Like-named read-outs stand apart in the source and are kept apart here.

Columns and labels:
[1] = system: HCT15 (human colon adenocarcinoma); experiment: SRB cytotoxicity test, HCT15; format: cell-based; conditions: Homo sapiens, HCT-15, 48 h
Description: (§1) To determine the cytotoxicity against human tumor cell line of the test samples prepared in Examples, following sulforhodamin B (SRB) bioassy test was performed according to the method disclosed in the literature (Skehan, P., et al., J. Natl. Cancer Inst., 82, 1990, 1107-1112).
(§2) Various human tumor cell lines, i.e., A-549 (human adenocarcinoma of lung, NCI), SK-OV-3 (human ovarian tumor, NCI), SK-MEL-2 (human malignant melanoma, NCI), HCT15 (human colon adenocarcinoma, NCI), MES-SA (human uterine carcinoma, NCI) and MES-SA/DX5 (multidrug resistant carcinoma subline of MES-SA, NCI) were used in the test.
(§3) The subcultured cell lines were detached from the surface of wall using by trypsin-EDTA solution and adjusted to various concentration of cell lines, i.e., 5×10^3 cells/well (A-549, HCT15), 1×10^4 cells/well (SK-MEL-2), 5×10^3 cells/well (SK-OV-3) in 96-well flat bottom microplate. The inoculated cell lines were incubated in CO2 incubator (MCO-20AIC, SANYO Electric Co., LTd.) to be attached on the bottom of incubator and the culture media was removed with aspirator. 6 logarithmic concentrations of the diluted test samples were added to each well containing cell line at 100 μl/well in a three fold dilution manner and the cell was incubated for 48 hours. The culture media in each well was removed and 100μ of 10% trichloroacetic acid was added thereto to be left alone at 4° C. for 1 hour and to fix the cells to the bottom of the plates. […] The cell plates were shaked with titer plate shaker (KOMA Orbital Shaker KE011, KOMABIOTech) for 10 mins to exude the staining solution and to determine the absorbance at 520 nm using by microplate spectrophotometer (Sunrise, TECAN).

[2] = system: MES-SA/DX5 (multidrug resistant carcinoma subline of MES-SA); experiment: SRB cytotoxicity test, MES-SA/DX5; format: cell-based, human; conditions: Homo sapiens, MES-SA/Dx5, 48 h, read-out: Cytotoxicity IC50, MES-SA/DX5
Description: as §1, §2, §3

[3] = system: HCT15/CL02; experiment: SRB cytotoxicity test, HCT15/CL02; format: cell-based, human; conditions: Homo sapiens, HCT-15; Table 4, 48 hours
Description: To determine the cytotoxicity against human tumor cell line of the test samples prepared in Examples, following sulforhodamin B (SRB) bioassy test was performed according to the method disclosed in the literature (Skehan, P., et al., J. Natl. […] The inoculated cell lines were incubated in CO2 incubator (MCO-20AIC, SANYO Electric Co., LTd.) to be attached on the bottom of incubator and the culture media was removed with aspirator. 6 logarithmic concentrations of the diluted test samples were added to each well containing cell line at 100 μl/well in a three fold dilution manner and the cell was incubated for 48 hours. […] The cell plates were shaked with titer plate shaker (KOMA Orbital Shaker KE011, KOMABIOTech) for 10 mins to exude the staining solution and to determine the absorbance at 520 nm using by microplate spectrophotometer (Sunrise, TECAN).

[4] = system: MES-SA (human uterine carcinoma); experiment: SRB cytotoxicity test, MES-SA; format: cell-based; conditions: Homo sapiens, MES-SA, 48 h
Description: as §1, §2, §3

[5] = system: HPV16 PVs; experiment: Virus inhibition test (in vitro), SEAP activity of 293TT cells infected with HPV pseudovirion; format: cell-based; conditions: Human papillomavirus 16, read-out: inhibitory activity from HPV16 PVs
Description: Prior to in vitro antiviral assay, 5×10^3 of 293TT cell was seeded on 96-well plate and incubated at 37° C. for 16 hours in 5% CO2 atmosphere. The culture media was removed and each extract was diluted to the concentration of 100 μg/ml or 50 μg/ml to distribute into each cell at the dose of 100 μl/cell. After treating with the extract for 16 hours, the culture media was removed and the cell was washed with PBS twice. The cell was infected by 106RLU/ml of HPV PVs at the dose of 100 μl/cell and incubated for 48 hours at 37° C. in 5% CO2 atmosphere. To determine the viral activity, the supernatant of the cell culture was used for determine the activity of secreted alkaline phosphatase (SEAP) using by Great EscAPE™ SEAP Chemiluminescence Kit (631738, Clontech, CA, USA). To determine the SEAP activity, relative light units (RLU) value was obtained using by Luminescence coulter (Micro beta triLux 1450, PerkinElmer, CT, USA) and the RLU values of the cell treated with the extract and untreated with the extract, were compared with each other. The decrease of SEAP activity was regarded as the inhibition effect against HPV PVs.
To determine the inhibitory effect on luciferase-comprising HPV virus contagion of the test samples prepared in Examples, following test was performed according to the method disclosed in the literature (Shaneyfelt et al., Virology Journal, 3:68, 2006, 1-11; Roden et al., J. Virol., 70, 1996, 5875-5883; Unckell et al., J. Virol., 71, 1997, 2934-2939; Touze et al., Nucleic Acids Research, 26, 1998, 1317-1323; Selinka et al., J. Virol., 77, 2003, 12961-12967; Klasse et al., Journal of General Virology, 83, 2002, 2091-2108)
5×10^3293TT cell was seeded on 96-well plate and incubate for 16 hours. 50 μg of test sample was mixed with the culture media in the concentration of 100 ug/ml and incubated for 16 hours. The media was washed with 100 μl of PBS twice and the cell was infected with 10^6RLU/ml of HPV pseudovirion at the dose of 100 μl/cell to incubate at 37° C., for 48 hours in 5% CO2 atmosphere.
5× lysis buffer in Great EscAPE™ SEAP Chemiluminescence Kit (631738, Clontech, CA, USA) was made to 1× and both of 45 μl of 1× lysis buffer and 15 μl of cell culture medium were added to 96-well plate (3912, Costar, NY, USA). 60 μl of the substrate in Great EscAPE™ SEAP Chemiluminescence kit was added thereto and the relative light units (RLU) value was obtained using by Luminescence coulter (Micro beta triLux 1450, PerkinElmer, CT, USA). The RLU values of the cell treated with the extract and untreated with the extract, were compared with each other and the decrease of SEAP activity was regarded as the inhibition effect against HPV PVs.

[6] = system: HPV16 PVs; experiment: as above; format: cell-based; conditions: Human papillomavirus 16, read-out: inhibitory activity on HPV16 PVs
[7] = system: SK-OV-3 (human ovarian tumor); experiment: SRB cytotoxicity test, SK-OV-3; format: cell-based; conditions: Homo sapiens, read-out: Cytotoxicity IC50, SK-OV-3
Description: as §1, §2, §3

[8] = system: SK-MEL-2 (human malignant melanoma); experiment: SRB cytotoxicity test, SK-MEL-2; format: cell-based; conditions: Homo sapiens, read-out: Cytotoxicity IC50, SK-MEL-2
Description: as §1, §2, §3

[9] = system: A-549 (human adenocarcinoma of lung); experiment: SRB cytotoxicity test, A-549; format: cell-based; conditions: Homo sapiens, read-out: Cytotoxicity IC50, A-549
Description: as §1, §2, §3

[10] = Table 4, 48 hours, read-out: Cytotoxicity IC50, HCT15
[11] = Table 4, 48 hours, read-out: Cytotoxicity IC50, MES-SA
[12] = Table 3, 48 hours, read-out: Cytotoxicity IC50, HCT15
[13] = Table 3, 48 hours, read-out: Cytotoxicity IC50, MES-SA

## CC(C)c1ccc2c(c1)[C@H](O)CC1[C@](C)(C(=O)O)CCC[C@]21C (stereo partly drawn) [compound (f), 7α-hydroxycallitirisic acid]
[1]; [10]
  IC50: > 30 µg/mL
[2]
  IC50: 27.4 µg/mL (≈ 86.7 µM)
[3]
  IC50: > 30 µg/mL
[4]; [11]
  IC50: 26.8 µg/mL (≈ 84.7 µM)
[5]
  inhibition at 50 µg/mL: 70 to 80%

## CC(C)(O)c1ccc2c(c1)C(=O)C[C@H]1[C@](C)(C(=O)O)CCC[C@]21C [compound (g), 7-oxo-15-hydroxydehydroabietic acid]
[1]; [10]
  IC50: > 30 µg/mL
[2]
  IC50: > 30 µg/mL
[3]
  IC50: > 30 µg/mL
[4]; [11]
  IC50: > 30 µg/mL
[5]
  inhibition at 50 µg/mL: 70 to 80%

## CC(C)c1ccc2c(c1)CC[C@H]1[C@](C)(C(=O)O)CCC[C@]21C [compound (i), dehydroabietic acid]
[6]
  inhibition at 5 µg/mL: ~50%
[1]; read-out: Cytotoxicity IC50, HCT15
  IC50: 15.7 µg/mL (≈ 52.2 µM)
[7]; SK-OV-3, 48 h
  IC50: 17.3 µg/mL (≈ 57.5 µM)
[8]; SK-MEL-2, 48 h
  IC50: 13 µg/mL (≈ 43.3 µM)
[9]; A549, 48 h
  IC50: 13.4 µg/mL (≈ 44.7 µM)
[2]
  IC50: 12 µg/mL (≈ 40 µM)
[4]; read-out: Cytotoxicity IC50, MES-SA
  IC50: 10.3 µg/mL (≈ 34.4 µM)
[5]
  inhibition at 50 µg/mL: 70 to 80%

## CC(C)(O)c1ccc2c(c1)CC[C@H]1[C@](C)(C(=O)O)CCC[C@]21C [compound (k), 15-hydroxydehydroabietic acid]
[1]; [12]
  IC50: 98.2 µg/mL (≈ 310 µM)
[7]; SK-OV-3, Table 3, 48 hours
  IC50: 142 µg/mL (≈ 448 µM)
[8]; SK-MEL-2, Table 3, 48 hours
  IC50: 88.8 µg/mL (≈ 281 µM)
[9]; A549, Table 3, 48 hours
  IC50: 109 µg/mL (≈ 345 µM)
[2]
  IC50: 91.9 µg/mL (≈ 290 µM)
[4]; [13]
  IC50: 90.7 µg/mL (≈ 286 µM)
[5]
  inhibition at 50 µg/mL: 70 to 80%

## C=C1CC[C@H]2O[C@]2(C)CC[C@@H]2[C@@H]1CC2(C)C [compound (l), caryophyllene oxide]
[1]; [12]
  IC50: 26.8 µg/mL (≈ 121 µM)
[7]; SK-OV-3, Table 3, 48 hours
  IC50: 23.7 µg/mL (≈ 108 µM)
[8]; SK-MEL-2, Table 3, 48 hours
  IC50: 18.6 µg/mL (≈ 84.6 µM)
[9]; A549, Table 3, 48 hours
  IC50: 36.4 µg/mL (≈ 165 µM)
[2]
  IC50: 17.7 µg/mL (≈ 80.5 µM)
[4]; [13]
  IC50: 15.2 µg/mL (≈ 69.2 µM)
[5]
  inhibition at 50 µg/mL: 70 to 80%

## COc1cccc2c1C(=O)c1c(O)c3c(c(O)c1C2=O)C[C@@](O)(C(=O)CO)C[C@@H]3O[C@H]1C[C@H](N)[C@H](O)[C@H](C)O1 [doxorubicin, reference compound]
[1]; read-out: Cytotoxicity IC50, HCT15, Table 3, 48 hours
  IC50: 0.0833 µg/mL (≈ 0.153 µM)
[1]; read-out: Cytotoxicity IC50, HCT15, Table 4, 48 hours
  IC50: 0.016 µg/mL (≈ 0.0294 µM)
[7]; SK-OV-3, 48 h
  IC50: 0.0104 µg/mL (≈ 0.0191 µM)
[8]; SK-MEL-2, 48 h
  IC50: 0.0012 µg/mL (≈ 0.00221 µM)
[9]; A549, 48 h
  IC50: 0.0072 µg/mL (≈ 0.0132 µM)
[2]; Table 1, extract and solvent fractions, 48 hours
  IC50: 0.412 µg/mL (≈ 0.758 µM)
[2]; Table 2, purified extracts, 48 hours
  IC50: 0.412 µg/mL (≈ 0.758 µM)
[2]; Table 3, 48 hours
  IC50: 1.45 µg/mL (≈ 2.67 µM)
[2]; Table 4, 48 hours
  IC50: 1.45 µg/mL (≈ 2.67 µM)
[3]
  IC50: 2.11 µg/mL (≈ 3.88 µM)
[4]; read-out: Cytotoxicity IC50, MES-SA, Table 1, extract and solvent fractions, 48 hours
  IC50: 0.0002 µg/mL (≈ 0.000368 µM)
[4]; read-out: Cytotoxicity IC50, MES-SA, Table 2, purified extracts, 48 hours
  IC50: 0.0002 µg/mL (≈ 0.000368 µM)
[4]; read-out: Cytotoxicity IC50, MES-SA, Table 3, 48 hours
  IC50: 0.0051 µg/mL (≈ 0.00938 µM)
[4]; read-out: Cytotoxicity IC50, MES-SA, Table 4, 48 hours
  IC50: 0.0051 µg/mL (≈ 0.00938 µM)
